Assay results taken from patent US11827917B1, “Methods for the conversion of fermentable sugars to ethanol” (Colorado State University Research Foundation, priority 2020, dated 2023).
Marks after values point to notes of the source that are not given here.

Key:
S. mikatae JAY 1504 = assay: Serum-bottle cultivation in YPD, different yeast strains; assay type: cell-based; settings: 0.2%
Protocol: (§1) Analytical methods: Cell growth was evaluated by monitoring OD600 and cell dry mass concentration. For dry mass measurements, 1.0 mL of culture was transferred to a pre-dried and pre-weighed 2-mL centrifuge tube. The tubes were centrifuged for 10 min at 14000 rpm using a microcentrifuge, and then the cell pellets were dried in an oven for 3 days at 65° C. The cell dry mass was determined by subtracting the initial tube mass from the dried mass of tube with cells. The concentrations of glucose, ethanol, and glycerol were measured via HPLC (Shimadzu LC20A series) outfitted with a refractive index detector and using an Aminex HPX-87H (300×7.8 mm) organic acid column and Cation H+ guard cartridge (Bio Rad Laboratories, Hercules, CA). The column was maintained at 65° C. and the mobile phase was 5 mM sulfuric acid with a flow rate of 0.6 mL/min. Standard compound solutions were used to calibrate the HPLC. Each sample was analyzed three times by HPLC.
(§2) Procedure: Seven yeast strains (S. cerevisiae ATCC 26603, S. cerevisiae JAY 238, S. cerevisiae JAY 240, S. cerevisiae JAY 241, S. paradoxus JAY 1502, S. kudriavzezii JAY 1503, and S. mikatae JAY 1504) were pre-cultured in 30 mL of YPD medium in 100 mL serum bottle overnight in a shaker at 30° C. and 200 rpm. The precultured yeast cells of each strains were collected and washed twice. Finally, the cell pellet was resuspended in about 10 mL 0.8% (w/v) NaCl and the OD600 measured. TyrOH, PheOH, and TrpOH were added to 30 mL of YPD medium in 100-mL serum bottles at 0.2% (w/v) respectively. The same amount of DMSO was added in YPD medium and served as control to the TrpOH and TyrOH treatments. The prepared yeast cells were added to obtain the initial cell concentration at OD600=0.2. The serum bottles were sealed and cultured in a shaker at 30° C. and 200 rpm for 24 h. There were three biological replicates for each treatment.

S. kudriavzezii JAY 1503 = assay: as above; assay type: cell-based; settings: 0.2%
Protocol: as §1, §2

S. paradoxus JAY 1502 = assay: as above; assay type: cell-based; settings: 0.2%
Protocol: as §1, §2

S. cerevisiae JAY 238 = assay: as above; assay type: cell-based, Saccharomyces cerevisiae; settings: 0.2%
Protocol: as §1, §2

S. cerevisiae JAY 270 = assay: Serum-bottle cultivation in YPD: biomass, glycerol, ethanol yields; assay type: cell-based, Saccharomyces cerevisiae
Protocol: Procedure: Cultivations in serum bottles were used to determine the effect of the best-performing screened chemicals on the ethanol yield. S. cerevisiae JAY 270 was pre-cultured in 100 mL of YPD medium in 200-mL serum bottles overnight in a shaker at 30° C. and 200 rpm. The precultured yeast cells were collected and washed twice as described above. The cell pellet was resuspended in about 10 mL of 0.8% (w/v) NaCl and the cell concentration was estimated as OD600. TyrOH, PheOH, and TrpOH were added to 30 mL of YPD medium in 100-mL serum bottles at 0.05% and 0.2% respectively. The same amount of DMSO was added to YPD medium to serve as the control for TrpOH and TyrOH treatments. The bottles were inoculated with the prepared yeast cells to obtain an initial cell concentration of OD600=0.2. The serum bottles were sealed and cultured in a shaker at 30° C. and 200 rpm for 24 h. Each condition had three biological replicates.
as §1

[1] = S. mikatae JAY 1504, YPD (Table 9B)
[2] = S. kudriavzezii JAY 1503, YPD (Table 9B)
[3] = S. paradoxus JAY 1502, YPD (Table 9B)
[4] = S. cerevisiae JAY 238, YPD (Table 9B)
[5] = 0.05% (w/v), YPD, serum bottles

OCCc1ccccc1 [PheOH, 2-phenylethanol]
Biomass Yield (S. mikatae JAY 1504; S. mikatae JAY 1504): 0.053 ± 0.000 g/g
Biomass yield % change vs. control (S. mikatae JAY 1504; S. mikatae JAY 1504): −14%
EtOH yield (S. mikatae JAY 1504; S. mikatae JAY 1504): 0.386 ± 0.009 g/g
EtOH yield % change vs. control (S. mikatae JAY 1504; S. mikatae JAY 1504): +3.6%
Glycerol yield (S. mikatae JAY 1504; S. mikatae JAY 1504): 0.043 ± 0.007 g/g
Glycerol yield % change vs. control (S. mikatae JAY 1504; S. mikatae JAY 1504): +4.1%
DCW (S. mikatae JAY 1504; S. mikatae JAY 1504, YPD): 2.35 mg
DCW Δ vs. ref (S. mikatae JAY 1504; S. mikatae JAY 1504, YPD): 77.1%
OD600 (S. mikatae JAY 1504; S. mikatae JAY 1504, YPD): 1.85
OD600 Δ vs. ref (S. mikatae JAY 1504; S. mikatae JAY 1504, YPD): 82.9%
Biomass Yield (S. mikatae JAY 1504; [1]): 0.053 + 0.000 g/g
Biomass yield Δ vs. ref (S. mikatae JAY 1504; [1]): −13.8%
Ethanol yield (S. mikatae JAY 1504; [1]): 0.386 ± 0.009 g/g
Ethanol yield Δ vs. ref (S. mikatae JAY 1504; [1]): 3.6%
Glycerol yield (S. mikatae JAY 1504; [1]): 0.043 ± 0.007 g/g
Glycerol yield Δ vs. ref (S. mikatae JAY 1504; [1]): 4.09%
Biomass Yield (S. kudriavzezii JAY 1503; S. kudriavzezii JAY 1503): 0.036 ± 0.001 g/g
Biomass yield % change vs. control (S. kudriavzezii JAY 1503; S. kudriavzezii JAY 1503): −19%
EtOH yield (S. kudriavzezii JAY 1503; S. kudriavzezii JAY 1503): 0.399 ± 0.030 g/g
EtOH yield % change vs. control (S. kudriavzezii JAY 1503; S. kudriavzezii JAY 1503): +8.7%
Glycerol yield (S. kudriavzezii JAY 1503; S. kudriavzezii JAY 1503): 0.060 ± 0.005 g/g
Glycerol yield % change vs. control (S. kudriavzezii JAY 1503; S. kudriavzezii JAY 1503): +19* %
DCW (S. kudriavzezii JAY 1503; S. kudriavzezii JAY 1503, YPD): 1.90 mg
DCW Δ vs. ref (S. kudriavzezii JAY 1503; S. kudriavzezii JAY 1503, YPD): 84.4%
OD600 (S. kudriavzezii JAY 1503; S. kudriavzezii JAY 1503, YPD): 0.92
OD600 Δ vs. ref (S. kudriavzezii JAY 1503; S. kudriavzezii JAY 1503, YPD): 74.9%
Biomass Yield (S. kudriavzezii JAY 1503; [2]): 0.043 + 0.004 g/g
Biomass yield Δ vs. ref (S. kudriavzezii JAY 1503; [2]): 18.6%
Ethanol yield (S. kudriavzezii JAY 1503; [2]): 0.399 ± 0.030 g/g
Ethanol yield Δ vs. ref (S. kudriavzezii JAY 1503; [2]): 8.7%
Glycerol yield (S. kudriavzezii JAY 1503; [2]): 0.06 ± 0.005 g/g
Glycerol yield Δ vs. ref (S. kudriavzezii JAY 1503; [2]): 18.78%
Biomass Yield (S. paradoxus JAY 1502; S. paradoxus JAY 1502): 0.048 ± 0.001 g/g
Biomass yield % change vs. control (S. paradoxus JAY 1502; S. paradoxus JAY 1502): −30* %
EtOH yield (S. paradoxus JAY 1502; S. paradoxus JAY 1502): 0.393 ± 0.000 g/g
EtOH yield % change vs. control (S. paradoxus JAY 1502; S. paradoxus JAY 1502): +2.7%
Glycerol yield (S. paradoxus JAY 1502; S. paradoxus JAY 1502): 0.048 ± 0.002 g/g
Glycerol yield % change vs. control (S. paradoxus JAY 1502; S. paradoxus JAY 1502): +22* %
DCW (S. paradoxus JAY 1502; S. paradoxus JAY 1502, YPD): 1.95 mg
DCW Δ vs. ref (S. paradoxus JAY 1502; S. paradoxus JAY 1502, YPD): 78.0%
OD600 (S. paradoxus JAY 1502; S. paradoxus JAY 1502, YPD): 1.64
OD600 Δ vs. ref (S. paradoxus JAY 1502; S. paradoxus JAY 1502, YPD): 70.0%
Biomass Yield (S. paradoxus JAY 1502; [3]): 0.048 + 0.001 g/g
Biomass yield Δ vs. ref (S. paradoxus JAY 1502; [3]): −29.8%
Ethanol yield (S. paradoxus JAY 1502; [3]): 0.393 ± 0.000 g/g
Ethanol yield Δ vs. ref (S. paradoxus JAY 1502; [3]): 2.7%
Glycerol yield (S. paradoxus JAY 1502; [3]): 0.048 ± 0.002 g/g
Glycerol yield Δ vs. ref (S. paradoxus JAY 1502; [3]): 21.98%
Biomass Yield (S. cerevisiae JAY 238; S. cerevisiae JAY 238): 0.059 ± 0.000 g/g
Biomass yield % change vs. control (S. cerevisiae JAY 238; S. cerevisiae JAY 238): −19* %
EtOH yield (S. cerevisiae JAY 238; S. cerevisiae JAY 238): 0.472 ± 0.017 g/g
Glycerol yield (S. cerevisiae JAY 238; S. cerevisiae JAY 238): 0.041 ± 0.002 g/g
Glycerol yield % change vs. control (S. cerevisiae JAY 238; S. cerevisiae JAY 238): −0.2%
DCW (S. cerevisiae JAY 238; S. cerevisiae JAY 238, YPD): 2.00 mg
DCW Δ vs. ref (S. cerevisiae JAY 238; S. cerevisiae JAY 238, YPD): 78.4%
OD600 Δ vs. ref (S. cerevisiae JAY 238; S. cerevisiae JAY 238, YPD): 65.9%
Biomass Yield (S. cerevisiae JAY 238; [4]): 0.059 + 0.000 g/g
Biomass yield Δ vs. ref (S. cerevisiae JAY 238; [4]): −18.9%
Ethanol yield (S. cerevisiae JAY 238; [4]): 0.472 ± 0.017 g/g
Ethanol yield Δ vs. ref (S. cerevisiae JAY 238; [4]): 9.3%
Glycerol yield (S. cerevisiae JAY 238; [4]): 0.041 ± 0.002 g/g
Glycerol yield Δ vs. ref (S. cerevisiae JAY 238; [4]): −0.22%
Cell dry mass concentration, % of the control (S. cerevisiae JAY 270; 0.05%): 85%
Biomass Yield (S. cerevisiae JAY 270; [5]): 0.088 + 0.001 g/g
Biomass yield % change vs. control (S. cerevisiae JAY 270; [5]): −11* %
EtOH yield (S. cerevisiae JAY 270; [5]): 0.40 ± 0.00 g/g
EtOH yield % change vs. control (S. cerevisiae JAY 270; [5]): 3.7%
Glycerol yield (S. cerevisiae JAY 270; [5]): 0.031 ± 0.001 g/g
Glycerol yield % change vs. control (S. cerevisiae JAY 270; [5]): −4.6%
Biomass yield vs. reference (S. cerevisiae JAY 270; 0.05%, YPD, serum bottles): −10.8%
Ethanol yield (S. cerevisiae JAY 270; 0.05%, YPD, serum bottles): 0.40 ± 0.00 g/g
Ethanol yield vs. reference (S. cerevisiae JAY 270; 0.05%, YPD, serum bottles): 3.7%
Glycerol yield (S. cerevisiae JAY 270; 0.05%, YPD, serum bottles): 0.031 ± 0.001 g/g
Glycerol yield vs. reference (S. cerevisiae JAY 270; 0.05%, YPD, serum bottles): −4.6%
OD600 (S. cerevisiae JAY 270; 0.05%, YPD, serum bottles): 3.35
Cell dry mass concentration, % of the control (S. cerevisiae JAY 270; 0.2%): 71%
Effect on yeast cell growth (S. cerevisiae JAY 270; 0.2%): reduced yeast cell growth
Biomass Yield (S. cerevisiae JAY 270; 0.2% (w/v), YPD, serum bottles): 0.064 + 0.002 g/g
Biomass yield % change vs. control (S. cerevisiae JAY 270; 0.2% (w/v), YPD, serum bottles): −35* %
EtOH yield (S. cerevisiae JAY 270; 0.2% (w/v), YPD, serum bottles): 0.41 ± 0.01 g/g
EtOH yield % change vs. control (S. cerevisiae JAY 270; 0.2% (w/v), YPD, serum bottles): 6.2* %
Glycerol yield (S. cerevisiae JAY 270; 0.2% (w/v), YPD, serum bottles): 0.025 ± 0.001 g/g
Glycerol yield % change vs. control (S. cerevisiae JAY 270; 0.2% (w/v), YPD, serum bottles): −25* %
Biomass yield vs. reference (S. cerevisiae JAY 270; 0.2%, YPD, serum bottles): −35.3%
Effect on ethanol yield (S. cerevisiae JAY 270; 0.2%, YPD, serum bottles): increased the ethanol yield significantly
Ethanol yield (S. cerevisiae JAY 270; 0.2%, YPD, serum bottles): 0.41 ± 0.01 g/g
Ethanol yield vs. reference (S. cerevisiae JAY 270; 0.2%, YPD, serum bottles): 6.2%
Glycerol yield (S. cerevisiae JAY 270; 0.2%, YPD, serum bottles): 0.025 ± 0.001 g/g
Glycerol yield vs. reference (S. cerevisiae JAY 270; 0.2%, YPD, serum bottles): −25.1%
OD600 (S. cerevisiae JAY 270; 0.2%, YPD, serum bottles): 2.44
